Reference: patent US4605744A, “Imidazole derivatives” (Hoffmann-La Roche Inc., priority 1985, dated 1986)
Read-outs that look alike come from different tables or passages of the source.

Legend:
K. pneumoniae 503-990A = test: In vivo activity alone and in combination (PD50, FIC); details: sc; for ED50: Klebsiella pneumoniae, 503990A, alone
Experimental: (§1) In Tables 9-14, the results of the in vivo activity against certain microorganisms of compounds I, M and N as given. […] The results in these Tables and the PD50 's were determined by the procedure set forth on page 160 in Beskid et al., Antimicrobial Agents and Chemotherapy, Vol. 20, No. 2 pp. 159-167 (Aug. 1981) for "in vivo studies".
(§2) In the Tables, the fractional inhibitory concentration index (FIC) for synergistic combination of a compound of this invention (X) with known antibiotic compound (Y) is determined by the following formula:
(§3) FIC=(PD50 (X combination)/PD50 (X alone)+(PD50 (Y
(§4) combination)/PD50 (Y alone)
(§5) An FIC of ≤0.60 is indicative of synergy. The synergy rating in the Tables is as follows:
(§6) In the combination, the parts are parts by weight, i.e. 10 to 1 is 10 parts by weight to 1 part by weight.

E. coli 736 = test: as above; details: Escherichia coli, sc, alone
Experimental: as §1, §2, §3, §4, §5, §6

S. aureus Smith = test: In vivo antibacterial activity (PD50); details: Staphylococcus aureus, sc, challenge 70 LD50s, 2 treatments, Table 11
E. coli 5152 = test: In vivo antibacterial activity (PD50); details: Escherichia coli, 5152, sc, 2 treatments
S. marcescens SM = test: In vivo antibacterial activity (PD50); details: Serratia marcescens; sc; challenge 489 LD50s; 2 treatments; Table 11
E. aerogenes 8 = test: In vivo antibacterial activity (PD50); details: Klebsiella aerogenes, 8, sc, read-out: PD50, sc, 2 treatments
E. cloacae 214 = test: In vivo antibacterial activity (PD50); details: Enterobacter cloacae, sc, challenge 3.8 LD50s, 2 treatments, Table 11
Experimental: as §1

S. schottmuelleri = test: In vivo antibacterial activity (PD50); details: sc; challenge 163 LD50s; 1 treatment; Table 11
Experimental: as §1

P. aeruginosa 6720 = test: In vivo antibacterial activity (PD50); details: Pseudomonas aeruginosa, 6720, sc, 2 treatments
P. vulgaris 100 = test: In vivo antibacterial activity (PD50); details: Proteus vulgaris; sc; challenge 100 LD50s; 1 treatment; Table 11
P. aeruginosa 6148B = test: In vivo antibacterial activity (PD50); details: Pseudomonas aeruginosa, sc
S. faecalis C1 = test: In vivo antibacterial activity (PD50); details: Enterococcus faecalis, C1; sc; challenge 10 LD50s; 1 treatment; Table 11
P. aeruginosa 503-56 = test: In vivo antibacterial activity (PD50); details: Pseudomonas aeruginosa, 50356, sc, challenge 50 LD50s, 2 treatments, Table 11
E. cloacae 6951 = test: In vivo antibacterial activity (PD50); details: Enterobacter cloacae, 6951, sc, 2 treatments
P. aeruginosa 8710 = test: In vivo antibacterial activity (PD50); details: Pseudomonas aeruginosa, 8710, sc
C. freundii 8ASM = test: In vivo antibacterial activity (PD50); details: Citrobacter freundii, sc, challenge 1000 LD50s, 1 treatment, Table 11
S. marcescens S3 = test: In vivo antibacterial activity (PD50); details: Serratia marcescens, S3; sc; challenge 32 LD50s; 2 treatments; Table 11; read-out: PD50
E. coli 257 = test: In vivo antibacterial activity (PD50); details: Escherichia coli, 257, sc, challenge >10^4 LD50s, 1 treatment
P. aeruginosa 6719 = test: In vivo antibacterial activity (PD50); details: Pseudomonas aeruginosa, 6719, sc
S. pneumoniae 6302 = test: In vivo antibacterial activity (PD50); details: Streptococcus pneumoniae, 6302, sc, challenge 1000 LD50s, 1 treatment, Table 11
K. pneumoniae HE7 = test: In vivo antibacterial activity (PD50); details: Klebsiella pneumoniae, HE7, sc, 2 treatments
S. pyogenes 4 = test: In vivo antibacterial activity (PD50); details: Streptococcus pyogenes, 4, sc, sc, 2 treatments, read-out: PD50
P. mirabilis 190 = test: In vivo antibacterial activity (PD50); details: Proteus mirabilis, sc, challenge 10^4 LD50s, 1 treatment, Table 11
K. pneumoniae 8357 = test: animal or person; type: in vivo; details: Klebsiella pneumoniae, 8357, sc, read-out: PD50
E. coli 387-1 = test: In vivo antibacterial activity (PD50); details: Escherichia coli, 3871; sc; challenge 127 LD50s; 1 treatment; Table 11
P. aeruginosa 6799 = test: In vivo antibacterial activity (PD50); details: Pseudomonas aeruginosa, 6799, sc, read-out: PD50
E. coli BC5524 = test: In vivo activity alone and in combination (PD50, FIC)
Experimental: as §1, §2, §3, §4, §5, §6

E. cloacae 4633 = test: as above; details: Enterobacter cloacae, 4633, sc, read-out: PD50 (alone)
Experimental: as §1, §2, §3, §4, §5, §6

SMILES: CC1(C)S[C@@H]2[C@H](NC(=O)[C@H](N)c3ccccc3)C(=O)N2[C@H]1C(=O)O [Ampicillin, ampicillin, reference compound]
- ED50 (K. pneumoniae 503-990A): 29 mg/kg
- ED50 (K. pneumoniae 503-990A; Table 14 line (1)): 58 mg/kg
- ED50 (K. pneumoniae 503-990A; Table 14 line (2)): 10 mg/kg
- PD50 (alone) (K. pneumoniae 503-990A): 16 mg/kg
- ED50 (E. coli 736): 5 mg/kg

SMILES: CO/N=C(\C(=O)N[C@@H]1C(=O)N2C(C(=O)O)=C(CSc3nc(=O)c(=O)[nH]n3C)CS[C@H]12)c1csc(N)n1 [Ceftriaxone, ceftriaxone]
- ED50 (S. aureus Smith): 3.2 mg/kg
- ED50 (E. coli 5152; challenge 2717 LD50s, Table 10): < 5 mg/kg
- ED50 (E. coli 5152; challenge 4780 LD50s, Table 11): < 2 mg/kg
- ED50 (S. marcescens SM): < 2 mg/kg
- ED50 (E. aerogenes 8; challenge 10 LD50s, Table 11): 6.9 mg/kg
- ED50 (E. aerogenes 8; challenge 24 LD50s, Table 10): 6.8 mg/kg
- ED50 (E. cloacae 214): < 10 mg/kg
- ED50 (S. schottmuelleri): < 0.5 mg/kg
- ED50 (P. aeruginosa 6720; challenge 35 LD50s, Table 11): 15 mg/kg
- ED50 (P. aeruginosa 6720; challenge 3511 LD50s, Table 10): 14 mg/kg
- ED50 (P. vulgaris 100): 0.05 mg/kg
- ED50 (P. aeruginosa 6148B; challenge 4.5 LD50s, 3 treatments, Table 10): < 5 mg/kg
- ED50 (P. aeruginosa 6148B; challenge 32 LD50s, 2 treatments, Table 11): 62 mg/kg
- ED50 (P. aeruginosa 6148B; challenge 33 LD50s, 3 treatments, Table 10): 8 mg/kg
- ED50 (S. faecalis C1): 50 mg/kg
- ED50 (P. aeruginosa 503-56): > 250 mg/kg
- ED50 (E. cloacae 6951; challenge 562 LD50s, Table 10): < 1 mg/kg
- ED50 (E. cloacae 6951; challenge 3162 LD50s, Table 11): 0.03 mg/kg
- ED50 (P. aeruginosa 8710; alone, challenge 1738 LD50s, Table 13, read-out: PD50 (alone)): 41 mg/kg
- ED50 (P. aeruginosa 8710; challenge >10^4 LD50s, 2 treatments, Table 11, read-out: PD50): 31 mg/kg
- ED50 (C. freundii 8ASM): 0.15 mg/kg
- ED50 (S. marcescens S3): 0.03 mg/kg
- ED50 (E. coli 257; Table 10): < 1 mg/kg
- ED50 (E. coli 257; Table 11): < 1 mg/kg
- ED50 (P. aeruginosa 6719; challenge 2249 LD50s, 3 treatments, Table 10): 18 mg/kg
- ED50 (P. aeruginosa 6719; challenge 2290 LD50s, 2 treatments, Table 11): 15 mg/kg
- ED50 (S. pneumoniae 6302): 0.22 mg/kg
- ED50 (K. pneumoniae HE7; challenge 750 LD50s, Table 10): < 1 mg/kg
- ED50 (K. pneumoniae HE7; challenge 1000 LD50s, Table 11): 0.39 mg/kg
- ED50 (S. pyogenes 4; challenge 3.3 LD50s, Table 11): < 2 mg/kg
- ED50 (S. pyogenes 4; challenge 100 LD50s, Table 10): > 2 mg/kg
- ED50 (P. mirabilis 190): 0.007 mg/kg
- ED50 (K. pneumoniae 8357): 0.03 mg/kg
- ED50 (E. coli 387-1): 0.09 mg/kg
- ED50 (P. aeruginosa 6799): < 10 mg/kg
- ED50 (P. aeruginosa 6799; sc, challenge 71 LD50s, 2 treatments, Table 11): 16 mg/kg

SMILES: CC(=O)OCC1=C(C(=O)O)N2C(=O)[C@@H](NC(=O)Cc3cccs3)[C@H]2SC1 [Cephalothin, cephalothin, reference compound]
- ED50 (E. coli BC5524; Escherichia coli, BC5524, sc, read-out: PD50 (alone), sc): < 250 mg/kg
- PD50 (alone) (E. coli BC5524; sc): > 250 mg/kg
- ED50 (E. cloacae 4633): > 250 mg/kg
